According to patent US11389449B2, “Treatment of metabolic syndrome with an sGC stimulator” (Cyclerion Therapeutics, Inc., priority 2017, dated 2022):

Tested on: patients with stable type 2 diabetes and hypertension
Experiment: Open-label Phase 2a trial of escalating doses (NCT02906579), metabolic assessments and tolerability
Format: in vivo, human
Conditions: for Change Serum Insulin, Mean / Change Serum Insulin, Median: fasting
Text: The primary objectives of this clinical study (ClinicalTrials.gov Identifier: NCT02906579) were to assess the acute effects of escalating doses of Compound I on endothelial function (using EndoPAT™—Itamar Medical; Caesarea, Israel- to measure fingertip small vessel pulse volume), blood pressure, heart rate/pulse, safety and tolerability in patients with Type 2 diabetes and a history of hypertension. Patients in this trial were on stable medications for glucose control (blood glucose lowering medication) and hypertension (including an ARB or an ACEi). Secondary measurements included assessment of fasting glucose levels, fasting insulin levels, hemoglobin A1C (HbA1C) levels, serum cholesterol levels, serum triglyceride levels, BMI and body weight.
Allocation: non-randomized; Intervention Model: single group assignment; Masking: non (open-label), Primary purpose: treatment. Single cohort of 11 patients confined to unit. Single clinical site.
Clinic Period: The Clinic Period began at Check-in on Day-1 and ended at Discharge on Day 19. Patients who met eligibility criteria based on Screening Visit assessments were admitted to the Study Center on Day-1 for procedures to confirm eligibility and were confined to the Study Center until Discharge on Day 19. Patients received a standard diet for diabetics. On Days 1 to 18, following an overnight fast of ≥8 hours, eligible patients received once-daily study drug. Safety (adverse event [AE] collection, vital signs, fasting glucose, serum insulin, electro cardiograms [ECGs]) and pharmacokinetic (PK) assessments, including blood collections, were performed at pre-specified times daily (see Schedule of Events). Pharmacodynamic assessments was performed on a 3-day cycle that repeated for each of the 6 dosing cycles (see FIG. 29 and Schedule of Events): the first day included supine and standing cuff BP and pulse measurements; the second day include ambulatory BP monitoring (ABPM), and the third day will include EndoPAT assessments of endothelial function. In addition, blood samples were collected for optional determination of exploratory biomarkers, including metabolic markers associated with metabolic syndrome (see Schedule of Events). On Day 19, after assessments were completed, patients were discharged from the Study Center at the Investigator's discretion. Patients were rescreened should they discontinue in the Screening Period due to visit window deviations or other administrative reasons. In addition, laboratory values, ECG values, or BPs that were outside the range specified in the protocol were repeated to confirm eligibility during the screening period at the Investigator's discretion after consultation with the Medical Monitor.
Escalating single doses (in 3-day cycles) of 10, 20, 30, 40 or 50 mg of Compound I. Compound I has previously been described in WO2014144100. Metabolic parameters, including fasting serum glucose levels, fasting serum insulin levels, hemoglobin A1C (HhA1C) levels, serum lipid levels and body weight, were determined on the second day of each 3-day cycle.
Fasting glucose (mg/dL) was measured in serum both enzymatically. Insulin (pmol/L) was measured by ECLIA. Cholesterol (mg/dL) was measured enzymatically. Triglycerides (mg/dL) were measured enzymatically. HbA1c (%) was measured using Roche Tina Quant.
Compound I was administered as multiples of a 5-mg oral tablet dosage form. Placebo was administered as multiples of a 5 mg tablet. Compound I was formulated as a spray dried dispersion formulation as described in WO2017095697.
Patients received orally administered study drug at approximately the same time (±15 minutes) every day in the morning (8 to 10 AM), after an overnight fast of at least 8 hours. Patients took multiple tablets together as needed to complete the total dose. […]

[1] = after escalation 10 to 50 mg over 15 days

In the case of OC(CNc1nc(-c2cc(-c3ccon3)n(Cc3ccccc3F)n2)ncc1F)(C(F)(F)F)C(F)(F)F [Compound I], the Change Serum Insulin, Mean (10 mg once daily cycle) is reported as 0.2 µIU/mL, the Change Serum Insulin, Median (10 mg once daily cycle) is reported as -0.5 µIU/mL and the Change Serum Insulin, Mean (20 mg once daily cycle) is reported as -0.4 µIU/mL. The Change Serum Insulin, Median (20 mg once daily cycle) was 0.1 µIU/mL, the Change Serum Insulin, Mean (30 mg once daily cycle) was -2.61 µIU/mL and the Change Serum Insulin, Median (30 mg once daily cycle) was -2 µIU/mL. For the same compound, the Change Serum Insulin, Mean (40 mg once daily cycle) was -2.49 µIU/mL, the Change Serum Insulin, Median (40 mg once daily cycle) was -1.9 µIU/mL and the Change Serum Insulin, Mean (50 mg once daily cycle) was -2.7 µIU/mL. The Change Serum Insulin, Median (50 mg once daily cycle) was -0.7 µIU/mL, the “reduction in mean fasting glucose level between placebo cycle (day 2) and end of treatment” value (after escalation 10, 20, 30, 40, 50 mg single oral daily dose) was 20% and the “reduction in mean cholesterol level between baseline (day-1) and end of treatment” value [1] was 23%. The “reduction in serum TGs between day-1 (baseline) and day 19” value [1] was “about 12%”, the “mean reduction of body weight” value (by end of treatment day 19) was “about 3.5 kg” and the “mean serum TG level” value (day 19) was 122 mg/dL. For the same compound, the “mean serum cholesterol level” value (day 19) was 142 mg/dL, the “Mean fasting glucose level” value (day 19 (end of treatment) after escalation 10 to 50 mg once daily) was 114 mg/dL and the “HbA1C mean reduction from baseline” value (day 19, actual HbA1C reading) was 0.40%. For the same compound, the “mean body weight relative to baseline (day-1)” value (each dosage 10 to 50 mg, cumulative over dose escalation) was “decreased for all dosages”, the “change between mean serum cholesterol value on day 19 (end of treatment) and day 32” value (follow-up after end of dosing) was “+43.3 mg/dL” and the tolerability (multiple dose escalation 10 to 50 mg once daily) was “well tolerated”.
